# Data: patent US10092575B2, “Substituted thiophene- and furan-fused azolopyrimidine-5-(6H)-one compounds” (DART NEUROSCIENCE (CAYMAN) LTD., priority 2012, dated 2018)
# pEC50: −log10 of the molar value.
# System: NS1 cells
# Assay: Neurite outgrowth (NOG) assay
# Format: cell-based
# Details: alone, without forskolin
# Procedure: Neuroscreen 1 (NS1) Cells (Cellomics Inc.) were cultured on collagen type I coated 75 cm2 plastic flasks (Biocoat, Becton Dickinson) in a humidified incubator at 37° C. in 5% CO2. Cells were cultured in RPMI complete cell culture medium (Cambrex) supplemented with 10% heat-inactivated horse serum (Invitrogen), 5% heat-inactivated fetal bovine serum (Cellgro), and 2 mM L-glutamine (Cambrex). For expansion, the cells were trypsinized and split at 80% confluence. Cell culture media was changed every 2 to 3 days.
# NS1 cells were harvested and counted using a Coulter counter (Becton Dickinson Coulter Z1). Cells were seeded in 96-well collagen I coated plates at a density of 2000 cells per well in volume of […]. RPMI media was supplemented with 200 ng/ml nerve growth factor (NGF, Sigma). NS1 cells were incubated for 72 hours to allow differentiation to a neuronal phenotype. […]
# Antibody-stained 96-well plates were stored at 4° C. in the dark until scanning. […] The neurite outgrowth assay is based on two channels to scanning: (1) Channel 1, which detects the Hoechst Dye and is used by the software to identify cells and for automated focusing; and (2) Channel 2, which detects the FITC fluorescence of the secondary antibody and is used by the software to calculate all data generated in reference to neurites. […]
row,Compound,neurite length and branching / neurite outgrowth
1,COc1ccc(C2CNC(=O)C2)cc1OC1CCCC1 (centres unmarked) [Rolipram],not affected

# Same assay, conditions: in combination with forskolin
row,Compound,neurite length and branching / neurite outgrowth
1,COc1ccc(C2CNC(=O)C2)cc1OC1CCCC1 (centres unmarked) [Rolipram],enhanced in dose-dependent manner

# Biological target: human PDE1b enzyme (Homo sapiens (Human), UniProt Q01064)
# Assay: PDE1b inhibitory assay (IMAP TR-FRET)
# Details: not given
row,Compound,pEC50
1,"COc1ccc(Cn2c(=O)n3ncnc3c3cc(CN(C)C)sc32)c(F)c1F [Example 214, 6-(2,3-Difluoro-4-methoxybenzyl)-8-((dimethylamino)methyl)thieno[3,2-e][1,2,4]triazolo[1,5-c]pyrimidin-5(6H)-one]",6.00 to 7.00
2,"COc1ccc(Cn2c(=O)n3nccc3c3cc(CN4C[C@@H](C)O[C@@H](C)C4)sc32)cc1 [Example 104, 2-(((2S,6R)-2,6-Dimethylmorpholino)methyl)-4-(4-methoxybenzyl)pyrazolo[1,5-c]thieno[3,2-e]pyrimidin-5(4H)-one]",6.00 to 7.00
3,"O=c1n(Cc2cccc(Cl)c2)c2sc(Cc3ccccc3)cc2c2ncnn12 [Example 9, 8-Benzyl-6-(3-chlorobenzyl)thieno[3,2-e][1,2,4]triazolo[1,5-c]pyrimidin-5(6H)-one]",6.00 to 7.00
4,"Cc1csc2c1c1ncnn1c(=O)n2Cc1ccccc1 [Example 6, 6-Benzyl-9-methylthieno[3,2-e][1,2,4]triazolo[1,5-c]pyrimidin-5(6H)-one]",6.00 to 7.00
5,"COc1ccc(Cn2c(=O)n3ncnc3c3c(C)c(CN4C[C@@H](C)N[C@@H](C)C4)sc32)cc1 [Example 72, 8-(((3R,5S)-3,5-Dimethylpiperazin-1-yl)methyl)-6-(4-methoxybenzyl)-9-methylthieno[3,2-e][1,2,4]triazolo[1,5-c]pyrimidin-5(6H)-one]",6.00 to 7.00

# Same assay, conditions: negative log of half-maximal molar inhibitory concentration; 200 nM FAM-cAMP; reported as ranges
row,Compound,PDE1b (pEC50)
1,"COc1ccc(Cn2c(=O)n3ncnc3c3c4c(sc32)CN(Cc2ccccn2)CC4)cc1 [Example 120, 6-(4-Methoxybenzyl)-9-(pyridin-2-ylmethyl)-8,9,10,11-tetrahydropyrido[4′,3′:4,5]thieno[3,2-e][1,2,4]triazolo[1,5-c]pyrimidin-5 (6H)-one]",>7
2,"COc1ccc(Cn2c(=O)n3ncnc3c3c(C)c(CNCC4(C)COC4)sc32)cc1 [Example 50, 6-(4-Methoxybenzyl)-9-methyl-8-((((3-methyloxetan-3-yl)methyl)amino)methyl)thieno[3,2-e][1,2,4]triazolo[1,5-c]pyrimidin-5(6H)-one]",>7
3,"COc1ccc(Cn2c(=O)n3ncnc3c3c4c(sc32)CN(Cc2nccn2C)CCC4)cc1 [Example 144, 6-(4-Methoxybenzyl)-9-((1-methyl-1H-imidazol-2-yl)methyl)-6,8,9,10,11,12-hexahydro-5H-[1,2,4]triazolo[1″,5″:1′,6′]pyrimido[5′,4′:4,5]thieno[2,3-c]azepin-5-one]",>7
4,"COc1ccc(Cn2c(=O)n3ncnc3c3c4c(sc32)CN(C(=O)C2CC2)CC4)c(F)c1 [Example 168, 9-(Cyclopropanecarbonyl)-6-(2-fluoro-4-methoxybenzyl)-8,9,10,11-tetrahydropyrido[4′,3′:4,5]thieno[3,2-e][1,2,4]triazolo[1,5-c]pyrimidin-5(6H)-one]",>7
5,"COc1ccc(Cn2c(=O)n3nccc3c3cc(CN4C[C@@H](C)O[C@@H](C)C4)sc32)cc1 [Example 104, 2-(((2S,6R)-2,6-Dimethylmorpholino)methyl)-4-(4-methoxybenzyl)pyrazolo[1,5-c]thieno[3,2-e]pyrimidin-5(4H)-one]",>7
6,"CCN1CCN(Cc2sc3c(c2C)c2ncnn2c(=O)n3Cc2ccc(OC)cc2)CC1=O [Example 66, 8-((4-Ethyl-3-oxopiperazin-1-yl)methyl)-6-(4-methoxybenzyl)-9-methylthieno[3,2-e][1,2,4]triazolo[1,5-c]pyrimidin-5(6H)-one]",>7
7,"COc1ccc(Cn2c(=O)n3ncnc3c3c(C)c(CN4CCN(S(C)(=O)=O)CC4)sc32)cc1 [Example 63, 6-(4-Methoxybenzyl)-9-methyl-8-((4-(methylsulfonyl)piperazin-1-yl)methyl)thieno[3,2-e][1,2,4]triazolo[1,5-c]pyrimidin-5(6H)-one]",>7
8,"COc1ccc(Cn2c(=O)n3ncnc3c3c(CNCC4CCOCC4)csc32)cc1 [Example 203, 6-(4-Methoxybenzyl)-9-((((tetrahydro-2H-pyran-4-yl)methyl)amino)methyl)thieno[3,2-e][1,2,4]triazolo[1,5-c]pyrimidin-5(6H)-one]",>7
9,"C[C@@H]1CN(Cc2cc3c(s2)n(Cc2ccc(F)c(Cl)c2)c(=O)n2ncnc32)C[C@H](C)O1 [Example 205, 6-(3-Chloro-4-fluorobenzyl)-8-(((2R,6S)-2,6-dimethylmorpholino)methyl)thieno[3,2-e][1,2,4]triazolo[1,5-c]pyrimidin-5(6H)-one]",>7
10,"COc1ccc(Cn2c(=O)n3ncnc3c3c4c(sc32)CN(CC(C)(C)C)CC4)cc1 [Example 115, 6-(4-Methoxybenzyl)-9-neopentyl-8,9,10,11-tetrahydropyrido[4′,3′:4,5]thieno[3,2-e][1,2,4]triazolo[1,5-c]pyrimidin-5(6H)-one]",>7
